Assay results from patent publication US20250034125A1, “COMPOUNDS AND USES THEREOF” (JANSSEN PHARMACEUTICA NV, priority 2019, published 2025).
Read-outs that look alike come from different tables or passages of the source.

Tests used:
SCD5 = target: T1, SCD5 (Homo sapiens, UniProt Q86SK9); assay: Growth inhibition of yeast (ole1Δ) expressing human SCD5 as the sole desaturase; assay type: cell-based; conditions: read-out: SCD5 IC50
T1 construct: host or cells: Saccharomyces cerevisiae ole1Δ strain (W303 pdr1Δ pdr3Δ background), plasmid pRS316, TDH3 promoter
T1 sequence (Q86SK9 1-330): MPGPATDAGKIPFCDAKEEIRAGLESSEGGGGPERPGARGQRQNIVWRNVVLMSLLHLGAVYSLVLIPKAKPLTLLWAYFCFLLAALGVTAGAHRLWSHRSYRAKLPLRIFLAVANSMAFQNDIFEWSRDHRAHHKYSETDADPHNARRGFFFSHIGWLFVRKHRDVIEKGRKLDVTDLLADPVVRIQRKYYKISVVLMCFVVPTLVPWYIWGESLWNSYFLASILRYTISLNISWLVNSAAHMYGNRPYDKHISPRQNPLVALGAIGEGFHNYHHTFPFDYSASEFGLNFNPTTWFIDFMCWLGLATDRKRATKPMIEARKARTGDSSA

SCD1 = target: T2, SCD1 (Homo sapiens, UniProt O00767); assay: Growth inhibition of yeast (ole1Δ) expressing human SCD1 as the sole desaturase; assay type: cell-based; conditions: read-out: SCD1 IC50
T2 construct: host or cells: Saccharomyces cerevisiae ole1Δ strain (W303 pdr1Δ pdr3Δ background), plasmid pRS316, TDH3 promoter
T2 sequence (O00767 1-359): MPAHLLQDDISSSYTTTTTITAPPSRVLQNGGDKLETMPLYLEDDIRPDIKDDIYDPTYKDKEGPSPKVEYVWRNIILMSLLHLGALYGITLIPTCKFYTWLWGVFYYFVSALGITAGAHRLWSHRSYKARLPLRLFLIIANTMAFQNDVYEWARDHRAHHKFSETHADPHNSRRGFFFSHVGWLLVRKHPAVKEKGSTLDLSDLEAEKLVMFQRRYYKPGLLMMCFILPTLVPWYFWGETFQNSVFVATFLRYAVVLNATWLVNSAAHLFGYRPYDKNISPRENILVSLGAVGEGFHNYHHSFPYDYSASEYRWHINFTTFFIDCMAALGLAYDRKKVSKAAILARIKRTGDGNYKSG

[1] = yeast strain with SCD5 plasmid, OD600 growth read at 40 h
[2] = yeast strain with SCD1 plasmid, OD600 growth read at 40 h

Row | SMILES | IC50 (SCD5; [1]) | IC50 (SCD1; [2]) | IC50 (SCD5) | IC50 (SCD1)
1 | Cn1nc(-c2nc(N3CCC(Cc4cc(F)cc(F)c4)CC3)no2)ccc1=O [Compound 115, 6-(3-(4-(3,5-difluorobenzyl)piperidin-1-yl)-1,2,4-oxadiazol-5-yl)-2-methylpyridazin-3(2H)-one] | 10 nM | 450 nM |  | 
2 | Cn1nc(OC(=O)N2CCC(Oc3cc(F)cc(F)c3)CC2)ccc1=O [Compound 108] | 5010 nM | 9000 nM |  | 
3 | Cn1nc(NC(=O)N2CCC(O)(Cc3cccc(F)c3)CC2)ccc1=O [Compound 47, 4-(3-fluorobenzyl)-4-hydroxy —N-(1-methyl-6-oxo-1,6-dihydropyridazin-3-yl)piperidine-1-carboxamide] | > 45000 nM | > 45000 nM |  | 
4 | Cn1nc(NC(=O)N2CCC(Cc3cccc(Cl)c3)C2)ccc1=O (stereo not shown) [Compound 25, 3-(3-chlorobenzyl)-N-(1-methyl-6-oxo-1,6-dihydropyridazin-3-yl)pyrrolidine-1-carboxamide] | 5290 nM | 2750 nM |  | 
5 | Cn1nc(NC(=O)N2CCC(F)(Cc3cccc(Cl)c3)CC2)ccc1=O [Compound 46] | 30 nM | 640 nM |  | 
6 | Cn1nc(-c2nc(N3CCC(Cc4ccccc4)CC3)no2)ccc1=O [Compound 113, 6-(3-(4-benzylpiperidin-1-yl)-1,2,4-oxadiazol-5-yl)-2-methylpyridazin-3(2H)-one] | 380 nM | > 45000 nM |  | 
7 | Cn1cc(NC(=O)N2CCC(Cc3cc(F)ccc3F)CC2)ccc1=O [Compound 10] | > 45000 nM | > 45000 nM |  | 
8 | Cn1nc(-c2noc(N3CCC(Cc4ccc(F)c(F)c4)CC3)n2)ccc1=O [Compound 123, 6-(5-(4-(3,4-difluorobenzyl)piperidin-1-yl)-1,2,4-oxadiazol-3-yl)-2-methylpyridazin-3(2H)-one] | 1400 nM | 4900 nM |  | 
9 | Cn1nc(-c2noc(N3CCC(Cc4cc(F)cc(F)c4)CC3)n2)ccc1=O [Compound 122, 6-(5-(4-(3,5-difluorobenzyl)piperidin-1-yl)-1,2,4-oxadiazol-3-yl)-2-methylpyridazin-3(2H)-one] | 1730 nM | 13600 nM |  | 
10 | Cn1cc(-c2nc(N3CCC(Oc4cc(F)cc(F)c4)CC3)no2)ccc1=O [Compound 15, 5-(3-(4-(3,5-difluorophenoxy)piperidin-1-yl)-1,2,4-oxadiazol-5-yl)-1-methylpyridin-2(1H)-one] | 860 nM | 12400 nM |  | 
11 | COC1(Cc2cccc(F)c2)CCN(C(=O)Nc2ccc(=O)n(C)n2)CC1 [Compound 48, 4-(3-fluorobenzyl)-4-methoxy —N-(1-methyl-6-oxo-1,6-dihydropyridazin-3-yl)piperidine-1-carboxamide] | > 45000 nM | > 45000 nM |  | 
12 | Cn1cc(NC(=O)N2CCC(Cc3ccc(F)c(F)c3)CC2)ccc1=O [Compound 7] | 5010 nM | > 45000 nM |  | 
13 | Cn1nc(NC(=O)N2CCC(Oc3cccc(C#N)c3Cl)CC2)ccc1=O [Compound 87, 4-(2-chloro-3-cyanophenoxy)-N-(1-methyl-6-oxo-1,6-dihydropyridazin-3-yl)piperidine-1-carboxamide] | > 45000 nM | > 45000 nM |  | 
14 | Cn1nc(NC(=O)N2CCC(COc3cccc(F)c3)CC2)ccc1=O [Compound 101, 4-((3-fluorophenoxy)methyl)-N-(1-methyl-6-oxo-1,6-dihydropyridazin-3-yl)piperidine-1-carboxamide] |  |  | > 45000 nM | > 45000 nM
15 | Cn1nc(CC(=O)N2CCC(Cc3cc(F)cc(F)c3)CC2)ccc1=O [Compound 38, 6-(2-(4-(3,5-difluorobenzyl)piperidin-1-yl)-2-oxoethyl)-2-methylpyridazin-3(2H)-one] | 6370 nM | 17200 nM |  | 
16 | Cn1nc(NC(=O)N2CC=C(c3ccc(Cl)cc3)CCC2)ccc1=O [Compound 134, 5-(4-chlorophenyl)-N-(1-methyl-6-oxo-1,6-dihydropyridazin-3-yl)-2,3,4,7-tetrahydro-1H-azepine-1-carboxamide] | > 45000 nM | > 45000 nM |  | 
17 | Cn1nc(NC(=O)N2CCC(Oc3cc(F)c(F)c(Cl)c3)CC2)ccc1=O [Compound 89, 4-(3-chloro-4,5-difluorophenoxy)-N-(1-methyl-6-oxo-1,6-dihydropyridazin-3-yl)piperidine-1-carboxamide] | 60 nM | 260 nM |  | 
18 | Cn1nc(CC(=O)N2CCC(Cc3cccc(Cl)c3)CC2)ccc1=O [Compound 37, 6-(2-(4-(3-chlorobenzyl)piperidin-1-yl)-2-oxoethyl)-2-methylpyridazin-3(2H)-one] | 4360 nM | 12700 nM |  | 
19 | Cn1nc(NC(=O)N2CCC(Cc3cc(F)c(F)c(F)c3)CC2)ccc1=O [Compound 62, N-(1-methyl-6-oxo-1,6-dihydropyridazin-3-yl)-4-(3,4,5-trifluorobenzyl)piperidine-1-carboxamide] | 20 nM | 390 nM |  | 
20 | Cn1nc(NC(=O)N2CC(Oc3cc(F)cc(F)c3)C2)ccc1=O [Compound 24, 3-(3,5-difluorophenoxy)-N-(1-methyl-6-oxo-1,6-dihydropyridazin-3-yl)azetidine-1-carboxamide] | 2900 nM | 1100 nM |  | 
21 | Cn1nc(NC(=O)N2CCC(Oc3cccc(F)c3C(F)(F)F)CC2)ccc1=O [Compound 84] | 170 nM | 430 nM |  | 
22 | Cn1nc(NC(=O)N2CCC(F)(Cc3cc(F)cc(F)c3)CC2)ccc1=O [Compound 59, 4-(3,5-difluorobenzyl)-4-fluoro —N-(1-methyl-6-oxo-1,6-dihydropyridazin-3-yl)piperidine-1-carboxamide] | 11000 nM | > 45000 nM |  | 
23 | Cn1nc(NC(=O)N2CCC(Oc3ccccc3C(F)(F)F)CC2)ccc1=O [Compound 75, N-(1-methyl-6-oxo-1,6-dihydropyridazin-3-yl)-4-(2-(trifluoromethyl)phenoxy) piperidine-1-carboxamide] | 70 nM | 220 nM |  | 
24 | Cn1nc(NC(=O)N2CCC(NCc3ccccc3C(F)(F)F)CC2)ccc1=O [Compound 105, N-(1-methyl-6-oxo-1,6-dihydropyridazin-3-yl)-4-(2-(trifluoromethyl)benzylamino) piperidine-1-carboxamide] | > 45000 nM | > 45000 nM |  | 
25 | COc1ccccc1OC1CCN(C(=O)Nc2ccc(=O)n(C)n2)CC1 [Compound 73, 4-(2-methoxyphenoxy)-N-(1-methyl-6-oxo-1,6-dihydropyridazin-3-yl)piperidine-1-carboxamide] | 12500 nM | 31900 nM |  | 
26 | Cn1nc(NC(=O)N2CCC(Cc3ccc(F)c(C#N)c3)CC2)ccc1=O [Compound 58, 4-(3-cyano-4-fluorobenzyl)-N-(1-methyl-6-oxo-1,6-dihydropyridazin-3-yl)piperidine-1-carboxamide] | 10400 nM | > 45000 nM |  | 
27 | Cn1nc(-c2nc(N3CCC(Cc4cc(Cl)cc(C#N)c4)CC3)no2)ccc1=O [Compound 117, 3-chloro-5-((1-(5-(1-methyl-6-oxo-1,6-dihydropyridazin-3-yl)-1,2,4-oxadiazol-3-yl)piperidin-4-yl)methyl)benzonitrile] | 30 nM | 2000 nM |  | 
28 | Cn1nc(CC(=O)N2CCC(Oc3cccc(Cl)c3)CC2)ccc1=O [Compound 39] | 1380 nM | 1350 nM |  | 
29 | Cn1nc(NC(=O)N2CCC(Cc3ccc(F)cc3)CC2)ccc1=O [Compound 44, 4-(4-fluorobenzyl)-N-(1-methyl-6-oxo-1,6-dihydropyridazin-3-yl)piperidine-1-carboxamide] |  |  | 1170 nM | 2210 nM
